In patent US20190313678A1, “SUGAR-DIPEPTIDE CONJUGATES AS FLAVOR MOLECULES” (NESTEC S.A., priority 2016, published 2019):
Entries after “also recorded” stand apart in the source; their conditions may differ.

How the values were obtained:
[1] = Sensory evaluation of the compounds in a chicken soup base; conditions: for flavor impact in chicken soup base versus reference soup: ANOVA/LSD, alpha 5%; for Sensory inpact on chicken soup: chicken soup base, compounds added at 2 and 0.25 g/L, 12 panelists
Method: Chicken soups were prepared by dissolving 6 g chicken base powder (detailed recipe shown in Table 1), 1 g monosodium glutamate and 1 g of sodium chloride in 500 mL hot water. 1-Deoxy-D-fructosyl-N-ornithyl-β-alanine, N-ornithyl-β-alanine, 1-deoxy-D-fructosyl-N-ornithine or alternatively 1-deoxy-2-pentulofuranos-1-yl-Ornithine (Rib-Orn) were then added separately at 2 and 0.25 g/L final concentrations.
The sensory evaluation was carried out by 12 panelists, previously screened for their sensory abilities. The panelists assessed a maximum of 6 samples per session. They had Vittel water and crackers as mouth cleansers. In all the cases, the panelists were instructed to evaluate the samples for the following attributes: overall flavor persistency, meaty, grilled/popcorn-like, bread-like, sweet, bitter, and salty. The samples were coded with random 3-digit numbers according to a balanced presentation design, heated at approximately 65° C. and then presented in 40 ml brown plastic containers and under red light to minimize appearance bias (the serving was approximately 25 ml per sample).
The following statistical tests were used to analyze the sensory raw data: First, the Analysis of Variance (ANOVA) with two factors, products (fixed factor) and subject (random factor) was computed in order to determine if there was any difference among samples. The limit of significance (alpha risk) was set at 5%. […] The limit of significance (alpha risk) was set at 5%.

[2] = Comparison of soup bases containing Fru-orn versus the mixture of glucose and ornithine; conditions: 2 g/L (6.82 mmol/L), 6 panelists
Method: A first soup was prepared by adding 2 g/L (6.82 mmol/L) 1-deoxy-D-fructosyl-N-ornithine in the soup base described above. A second soup was prepared by adding same molar concentration of glucose and ornithine. The solutions were then evaluated by 6 panelists following the same procedure than described above.

[3] = Tomato soups with added compound (seasoning compositions); conditions: 2 g/L in tomato soup
Method: Tomato soups can be prepared by dissolving 6 g tomato base powder as can be obtained in the commerce in 500 mL hot water. 1-deoxy-D-fructosyl-N-ornithine or alternatively 1-Deoxy-D-fructosyl-N-ornithyl-β-alanine can be added at a concentration of 2 g/L to the soups in order to improve their taste and flavor profile.

[4] = Sensory evaluation of the compounds in water; conditions: 2 g/L in water; 12 panelists
Method: The compounds ornithine, ornithyl-β-alanine, 1-deoxy-D-fructosyl-N-ornithine, 1-deoxy-D-fructosyl-N-ornithyl-β-alanine and 1-deoxy-2-pentulofuranos-1-yl-Ornithine (Rib-Orn) were each dissolved and diluted in water in a final concentration of 2 g/L. The solutions were then evaluated by 12 panelists, which were previously screened and selected for their sensory abilities.

[5] = cited from earlier work; for orosensation effect of subthreshold concentrations: together with L-glutamic acid and sodium and/or potassium ions, Dunkel and Hofmann 2009

## N[C@@H](CCCNCC1(O)OCC(O)C(O)C1O)C(=O)O (stereo partly drawn) [Fru-Orn, 1-deoxy-D-fructosyl-N-ornithine]
[1]; 0.25 g/L
  flavor impact in chicken soup base versus reference soup: bread flavors were significantly perceived
[1]; 2 g/L
  flavor impact in chicken soup base versus reference soup: grilled meat flavor and saltiness were significantly enhanced
[1]
  Sensory inpact on chicken soup: grilled/popcorn,; also recorded: bread, saltiness
[2]; tasted with nose-clip
  saltiness versus soup with same molar concentration of glucose and ornithine: more salty
[2]; tasted without nose-clip
  chicken flavor versus soup with same molar concentration of glucose and ornithine: greater chicken flavor
[3]
  grilled savory flavor of tomato soup versus reference soup: more pronounced grilled savory flavor
  perceived saltiness of tomato soup versus reference soup: slightly more salty
[4]
  Flavour property in water (2 g/L): salty

## N[C@@H](CCCNCC1(O)OC[C@@H](O)[C@@H](O)[C@@H]1O)C(=O)NCCC(=O)O (stereo partly drawn) [Fru-Orn-βala, 1-deoxy-D-fructosyl-N-ornithyl-β-alanine]
[1]; 2 g/L each
  grilled and bread attributes of chicken soup versus soup with orn-ala: enhanced significantly; also recorded: increases the desired grilled meat and bread flavor note
  overall flavor persistency of chicken soup versus soup with orn-ala: significantly different
  perceived bitterness of chicken soup versus soup with orn-ala: significantly decreasing; also recorded: reducing overall bitterness
[1]
  Sensory inpact on chicken soup: grilled/popcorn,; also recorded: bread, saltiness
[3]
  grilled savory flavor of tomato soup versus reference soup: more pronounced grilled savory flavor
  perceived saltiness of tomato soup versus reference soup: slightly more salty
[4]
  Flavour property in water (2 g/L): sweet, bread

## Cn1cncc1C[C@H](NC(=O)CCN)C(=O)O [L-anserine]
[5]
  orosensation effect of subthreshold concentrations: enhance the typical thick-sour orosensation and white-meaty character

## NCCC(=O)N[C@@H](Cc1cnc[nH]1)C(=O)O [L-carnosine]
[5]
  orosensation effect of subthreshold concentrations: enhance the typical thick-sour orosensation and white-meaty character

## NCCC[C@H](N)C(=O)NCCS(=O)(=O)O [L-ornithinyltaurine]
[5]; J. P. Ley 2008
  bitter masking effects against potassium salts: bitter masking effects
[5]; Tamura et al. 1989
  taste produced: salty taste

## NCCC[C@H](N)C(=O)O [Orn, L-ornithine]
[5]; J. P. Ley 2008
  off-taste inhibition in combination with bitter branched chain amino acids: off-taste inhibitor

## NCCC[C@H](N)C(=O)NCCC(=O)O [Orn-ala, N-ornithyl-β-alanine, reference compound]
[1]; 2 g/L
  flavor impact in chicken soup base versus reference soup: no statistically significant differences
[1]
  Sensory inpact on chicken soup: none
[4]
  Flavour property in water (2 g/L): astringent
[5]; J. P. Ley 2008
  bitter masking effects against potassium salts: bitter masking effects

## N[C@@H](CCCNCC1(O)OC[C@@H](O)[C@H]1O)C(=O)O (stereo partly shown) [Rib-Orn, 1-deoxy-2-pentulofuranos-1-yl-ornithine]
[1]; 0.25 g/L
  flavor impact in chicken soup base versus reference soup: both baked bread flavor and umami taste were significantly enhanced
[1]
  Sensory inpact on chicken soup: Grilled/bread,; also recorded: umami
[4]
  Flavour property in water (2 g/L): astringent, sour, metallic and slightly sweet; also recorded: Astringent,

## NCCC(=O)NCC(=O)O [β-alanylglycine]
[5]
  orosensation effect of subthreshold concentrations: enhance the typical thick-sour orosensation and white-meaty character
